Entries after “also recorded” stand apart in the source; their conditions may differ.
Tests used:
SSTR2 = test: Bias factor (β value), Gi cAMP inhibition versus β-arrestin recruitment; type: cell-based, human; conditions: for Effect of microswitch mutations: CWxP, PIF, DRY and NPxxY motif mutants versus wild-type SSTR2; for Effect of mutants on both signals: D122(3.32) and Q126(3.36) mutants
Description: The levels of the intracellular 3′, 5′-cyclic AMP (cAMP) were measured by the GloSensor cAMP assay (Promega) as described in the previous studies[28],[41] which has been widely used. The human full-length SSTRs and mutants were cloned into the pcDNA3.1+ vector with a HA signal sequence followed by a Flag tag at the N-terminus. […] Cells were then co-transfected with SSTR wild-type or mutants and GloSensor plasmids. After 24 h of transfection, the cells were dissociated with TrypLE™ Express Enzyme (1X) (Thermo Fisher Scientific) and collected by centrifugation at 500 × g for 5 min. Then the collected cells were suspended in Hank’s balanced salt solution [HBSS (Thermo Fisher Scientific)] supplemented with […] potassium salt solution (YEASEN), and then the suspension cells were seeded into 96-well plates with 90 μl/well. After incubating at room temperature for 40 min, 5 μM forskolin and ligands diluted in HBSS were added to each well and the plates were incubated at room temperature for 15 min. […] signals were measured using the Synergy H1 microplate reader (BioTek) and the data presented are means of at least three independent experiments.
The NanoBiT β-arrestin 1 recruitment assays were carried out according to the method described previously. […] Human full-length SSTR wild-type and mutant vectors were C-terminally fused with a 15-amino acid flexible linker and the small fragment (SmBiT). HEK293 cells were seeded into six-well microplates at a density of 1.0 × 10^6 cells/well and cultured for 24 h at 37 °C with 5% CO2. After that, cells were co-transfected with pcDNA3.1+ vectors encoding SSTR wild-type or mutants and human β-arrestin 1. After transfecting for 24 h, the transfected cells were suspended and seeded into white 96-well plates, and then cultured at 37 °C overnight. After that the medium in each well was exchanged for 90 μl of 0.01% bovine serum albumin containing 20 μl of 50 μM coelenterazine h (Carbosynth) diluted in the HBSS assay buffer and incubated for 40 min at room temperature. Then, ligands diluted in the assay buffer was added to each well and the luminescence intensity was measured using the Synergy H1 microplate reader and detected at room temperature in a time period. All data presented are means of at least three independent experiments.
All data in this study were analyzed using GraphPad Prism 7 and were expressed as the error bars and the standard error of means ± SEM from at least n = 3 biologically independent experiments performed in triplicate. All curve data were normalized to the maximal wild-type and processed using a sigmoidal dose response curve in GraphPad Prism 7. Statistical differences between conditions were determined by one-way of variance ANOVA with Dunnett’s test or T-test.

SSTR2 mutants [1] = biological target: SSTR2 mutants (Homo sapiens, UniProt P30874, R140A)
SSTR2 mutants [2] = biological target: SSTR2 mutants (Homo sapiens, UniProt P30874, Y312A)
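For Emax in this document: Read-out is the BRET ratio between Nluc-fused β-arrestin 1 and the early endosome marker FYVE-mVenus, measured after ligand addition with coelenterazine h as substrate.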

Sequence of SSTR2 mutants (Homo sapiens, UniProt P30874, Y312A) (P30874 whole entry Y312A, the tested form may be a part): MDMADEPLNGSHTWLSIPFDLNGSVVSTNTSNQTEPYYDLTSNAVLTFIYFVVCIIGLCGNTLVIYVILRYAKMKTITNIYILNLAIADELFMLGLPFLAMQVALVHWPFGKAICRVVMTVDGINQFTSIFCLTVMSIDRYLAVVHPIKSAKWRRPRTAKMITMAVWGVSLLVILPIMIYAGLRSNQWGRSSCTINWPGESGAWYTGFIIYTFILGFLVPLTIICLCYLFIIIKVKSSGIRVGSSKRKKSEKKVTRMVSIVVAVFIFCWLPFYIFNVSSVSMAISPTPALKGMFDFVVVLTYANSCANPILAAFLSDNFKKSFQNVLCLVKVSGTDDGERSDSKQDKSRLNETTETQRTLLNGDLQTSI
Sequence of SSTR2 mutants (Homo sapiens, UniProt P30874, R140A) (P30874 whole entry R140A): as the sequence (P30874 whole entry Y312A, the tested form may be a part) above, with R140A, A312Y counted along it

| Compound | Effect of microswitch mutations (SSTR2) | Effect of mutants on both signals (SSTR2) | Signal bias (SSTR2; SSTR2, compared with octreotide) | Emax (SSTR2 mutants [1]) | Emax (SSTR2 mutants [2]) |
| --- | --- | --- | --- | --- | --- |
| N#Cc1cccc(-c2ccc3ncc(-c4cc(F)cc(F)c4)c(N4CCC(N)CC4)c3c2)c1O [paltusotine] | decreased the potency of β-arrestin recruitment more markedly than the activation ability of Gi signaling | markedly affected both β-arrestin and Gi signal | more G protein-biased ligand than octreotide; also recorded: better G-protein-biased agonist of SSTR2 compared with octreotide | 50.9 ± 2.01% | 41.3 ± 3% |
| C[C@@H](O)[C@@H]1NC(=O)[C@H](CCCCN)NC(=O)[C@@H](Cc2c[nH]c3ccccc23)NC(=O)[C@H](Cc2ccccc2)NC(=O)[C@@H](NC(=O)[C@H](N)Cc2ccccc2)CSSC[C@@H](C(=O)N[C@H](CO)[C@@H](C)O)NC1=O [octreotide] | decreased the potency of β-arrestin recruitment more markedly than the activation ability of Gi signaling | markedly affected both β-arrestin and Gi signal | – | 48.4 ± 0.93% | 45.6 ± 1.21% |
